Measurements reported in patent publication US10918645B2 (LIFEARC, priority 2016, dated 2021).

How the values were obtained:
Conditions in all cases: 1 μM inhibitor concentration
PKBb = PKBb (Homo sapiens (Human), UniProt P31751, S474D); assay: PKBb kinase selectivity assay; format: biochemical
Procedure: (§1) ΔPH-PKBbeta-S474D (5-20 mU diluted in 50 mM Tris pH 7.5, 0.1 mM EGTA, 0.1% b-mercaptoethanol, 1 mg/ml BSA) is assayed against a modified Crosstide peptide ([…]) in a final volume of 25.5 μl containing 50 mM Tris pH 7.5, 0.05% b-mercaptoethanol, 30 μM substrate peptide, 10 mM magnesium acetate and 0.05 mM [33P-g-ATP](50-1000 cpm/pmole) and incubated for 30 min at room temperature. Assays are stopped by addition of 5 μl of 0.5 M (3%) orthophosphoric acid and then harvested onto P81 Unifilter plates with a wash buffer of 50 mM orthophosphoric acid.

PAK4 = PAK4 (Homo sapiens (Human), UniProt O96013); assay: PAK4 kinase selectivity assay; format: biochemical
Sequence of PAK4 (O96013 whole entry, species assumed): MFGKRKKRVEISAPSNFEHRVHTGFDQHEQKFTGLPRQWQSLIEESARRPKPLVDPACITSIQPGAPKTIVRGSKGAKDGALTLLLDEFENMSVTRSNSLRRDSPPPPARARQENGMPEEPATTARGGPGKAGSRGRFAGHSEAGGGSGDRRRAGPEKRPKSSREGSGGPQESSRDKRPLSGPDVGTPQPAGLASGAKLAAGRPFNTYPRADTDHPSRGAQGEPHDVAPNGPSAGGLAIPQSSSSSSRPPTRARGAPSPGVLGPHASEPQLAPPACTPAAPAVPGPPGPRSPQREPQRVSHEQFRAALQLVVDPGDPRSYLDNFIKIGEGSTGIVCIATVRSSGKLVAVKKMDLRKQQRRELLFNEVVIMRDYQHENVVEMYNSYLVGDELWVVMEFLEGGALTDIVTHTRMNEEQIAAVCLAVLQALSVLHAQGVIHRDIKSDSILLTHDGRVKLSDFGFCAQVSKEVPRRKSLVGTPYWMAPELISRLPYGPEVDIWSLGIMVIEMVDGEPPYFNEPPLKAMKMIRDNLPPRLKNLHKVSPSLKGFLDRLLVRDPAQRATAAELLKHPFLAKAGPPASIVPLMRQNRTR
Procedure: as §1, with “PAK4 (5-20” for “ΔPH-PKBbeta-S474D (5-20”, “a substrate” for “a modified Crosstide”, “b-mercaptoethanol, 300” for “b-mercaptoethanol, 30”, “and 0.005” for “and 0.05”, “mM [33P-g-ATP] (50-1000” for “mM [33P-g-ATP](50-1000”

NEK2a = NEK2a (Homo sapiens (Human), UniProt P51955); assay: NEK2a kinase selectivity assay; format: biochemical
Sequence of NEK2a (P51955 whole entry, species assumed): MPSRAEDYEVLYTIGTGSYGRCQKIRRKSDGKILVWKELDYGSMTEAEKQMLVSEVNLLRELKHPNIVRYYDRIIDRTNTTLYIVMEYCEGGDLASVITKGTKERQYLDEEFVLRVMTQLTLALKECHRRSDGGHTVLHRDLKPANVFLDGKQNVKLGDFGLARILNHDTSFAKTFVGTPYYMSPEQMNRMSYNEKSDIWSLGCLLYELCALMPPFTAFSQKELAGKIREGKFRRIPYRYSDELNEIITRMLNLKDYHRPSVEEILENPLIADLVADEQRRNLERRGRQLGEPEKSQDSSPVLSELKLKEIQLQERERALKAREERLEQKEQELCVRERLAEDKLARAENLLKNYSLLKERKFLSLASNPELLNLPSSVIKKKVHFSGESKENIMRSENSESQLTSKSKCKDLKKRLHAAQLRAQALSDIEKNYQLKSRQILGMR
Procedure: (§2) 5-20 mU of NEK2a (diluted in 50 mM Tris (pH 7.5), 0.1 mM EGTA, 1 mg/ml BSA, 0.1%, b-Mercaptoethanol) is assayed against NEK2a peptide ([…]) in a final volume of 25.5 μl containing 50 mM Tris (pH 7.5), 0.1 mM EGTA, 0.01% Brij, 0.1%, b-Mercaptoethanol, 300 μM NEK2a peptide, 10 mM magnesium acetate and 0.05 mM [33P-g-ATP](500-1000 cpm/pmole) and incubated for 30 mins at room temperature. Assays are stopped by addition of 5 μl of 0.5M (3%) orthophosphoric acid. Assays are harvested onto P81 Unifilter plates using a wash buffer of 50 mM orthophosphoric acid.

YES1 = YES1 (Homo sapiens (Human), UniProt P07947); assay: YES1 kinase selectivity assay; format: biochemical
Sequence of YES1 (P07947 whole entry, species assumed): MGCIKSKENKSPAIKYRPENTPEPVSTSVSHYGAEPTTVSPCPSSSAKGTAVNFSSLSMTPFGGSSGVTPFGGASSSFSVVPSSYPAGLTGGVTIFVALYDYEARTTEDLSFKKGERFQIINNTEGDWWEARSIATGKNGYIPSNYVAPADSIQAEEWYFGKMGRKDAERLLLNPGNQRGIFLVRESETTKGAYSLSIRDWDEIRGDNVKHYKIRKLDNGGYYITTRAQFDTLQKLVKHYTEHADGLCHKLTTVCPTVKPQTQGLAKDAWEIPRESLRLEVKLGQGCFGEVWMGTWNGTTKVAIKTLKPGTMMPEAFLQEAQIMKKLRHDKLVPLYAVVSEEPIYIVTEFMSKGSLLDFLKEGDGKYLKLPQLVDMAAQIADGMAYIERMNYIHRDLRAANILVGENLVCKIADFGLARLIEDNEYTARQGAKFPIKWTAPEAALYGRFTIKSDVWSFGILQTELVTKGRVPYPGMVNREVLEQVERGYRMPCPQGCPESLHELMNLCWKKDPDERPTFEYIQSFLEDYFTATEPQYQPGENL
Procedure: YES1 (5-20 mU diluted in 50 mM Tris pH 7.5, 0.1 mM EGTA, 1 mg/ml BSA) is assayed against a substrate peptide (Poly Glut Tyr) in a final volume of 25.5 μl containing 50 mM Tris pH 7.5, 1 mg/ml substrate peptide, 10 mM magnesium acetate and 0.02 mM [33P-g-ATP] (50-1000 cpm/pmole) and incubated for 30 min at room temperature. Assays are stopped by addition of 5 μl of 0.5 M (3%) orthophosphoric acid and then harvested onto P81 Unifilter plates with a wash buffer of 50 mM orthophosphoric acid.

AMPK(hum) = assay: AMPK kinase selectivity assay; format: biochemical, human
Procedure: AMPK (5-20 mU diluted in 50 mM Hepes pH 7.5, 1 mM DTT, 0.02% Brij35) is assayed against SAMS substrate peptide ([…]) in a final volume of 25.5 μl containing 50 mM Hepes pH 7.5, 1 mM DTT, 0.02% Brij35, 0.4 mM SAMS peptide, 0.196 mM AMP, 10 mM magnesium acetate and 0.05 mM [33P-g-ATP] (50-1000 cpm/pmole) and incubated for 30 min at room temperature. Assays are stopped by addition of 5 μl of 0.5 M (3%) orthophosphoric acid and then harvested onto P81 Unifilter plates with a wash buffer of 50 mM orthophosphoric acid.

CSK = CSK (Homo sapiens (Human), UniProt P41240); assay: CSK kinase selectivity assay; format: biochemical
Sequence of CSK (P41240 whole entry, species assumed): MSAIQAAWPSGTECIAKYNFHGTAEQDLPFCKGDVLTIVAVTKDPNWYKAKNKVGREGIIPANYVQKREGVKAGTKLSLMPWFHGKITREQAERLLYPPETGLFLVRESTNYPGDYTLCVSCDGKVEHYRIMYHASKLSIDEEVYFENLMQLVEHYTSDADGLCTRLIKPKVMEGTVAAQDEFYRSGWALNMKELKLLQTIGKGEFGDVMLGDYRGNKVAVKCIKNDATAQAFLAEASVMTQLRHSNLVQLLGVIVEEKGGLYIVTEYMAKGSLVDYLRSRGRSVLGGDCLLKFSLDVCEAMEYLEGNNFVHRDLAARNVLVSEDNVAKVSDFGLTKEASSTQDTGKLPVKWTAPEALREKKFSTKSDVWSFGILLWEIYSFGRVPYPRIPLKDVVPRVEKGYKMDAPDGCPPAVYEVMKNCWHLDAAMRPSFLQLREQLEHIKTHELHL
Procedure: CSK (5-20 mU diluted in 20 mM MOPS pH7.5, 1 mM EDTA, 0.01% Brij35, 5% glycerol, 0.1% b-mercaptoethanol, 1 mg/ml BSA) is assayed against Cdc2 peptide ([…]) in a final volume of 25.5 μl containing 8 mM MOPS pH7.0, 0.2 mM EDTA, Cdc2 peptide (0.25 mM), 10 mM magnesium acetate and 0.02 mM [33P-g-ATP](500-1000 cpm/pmole) and incubated for 30 min at room temperature Assays are stopped by addition of 5 μl of 0.5 M (3%) orthophosphoric acid and then harvested onto P81 Unifilter plates with a wash buffer of 50 mM orthophosphoric acid.

ERK2 = ERK2 (Homo sapiens (Human), UniProt P28482); assay: ERK2 kinase selectivity assay; format: biochemical
Sequence of ERK2 (P28482 whole entry, species assumed): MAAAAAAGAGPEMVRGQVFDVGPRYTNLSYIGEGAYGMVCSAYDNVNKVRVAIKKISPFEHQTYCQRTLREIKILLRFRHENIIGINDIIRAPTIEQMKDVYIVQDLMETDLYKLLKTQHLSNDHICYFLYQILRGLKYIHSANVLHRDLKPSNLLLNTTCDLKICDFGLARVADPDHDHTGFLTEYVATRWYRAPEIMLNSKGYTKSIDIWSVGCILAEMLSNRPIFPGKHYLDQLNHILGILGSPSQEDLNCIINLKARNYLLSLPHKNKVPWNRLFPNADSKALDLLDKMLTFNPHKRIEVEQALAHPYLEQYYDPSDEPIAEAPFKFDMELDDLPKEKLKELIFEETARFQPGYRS
Procedure: MAPK/ERK2 (5-20 mU diluted in 50 mM Tris pH 7.5, 0.1 mM EGTA, 0.1 mM Na3VO4, 0.1% b-mercaptoethanol, 1 mg/ml BSA) is assayed against MBP in a final volume of 25.5 μl in 25 mM Tris pH 7.5, 0.1 mM EGTA, 0.33 mg/ml MBP, 10 mM magnesium acetate and 0.05 mM [33P-g-ATP](500-1000 cpm/pmole) and incubated for 30 min at room temperature. Assays are stopped by addition of 5 μl of 0.5 M (3%) orthophosphoric acid and then harvested onto P81 Unifilter plates with a wash buffer of 50 mM orthophosphoric acid.

CAMK1 = CAMK1 (Homo sapiens (Human), UniProt Q14012); assay: CAMK1 kinase selectivity assay; format: biochemical
Procedure: as §2, with “of CAMK-1” for “of NEK2a”, “against substrate” for “against NEK2a”, “EGTA, 0.5 mM CaCl2, 0.3 μM calmodulin,” for “EGTA, 0.01% Brij,”, “μM substrate” for “μM NEK2a”, “of […]” for “of 5 μl”

Sequence of PKBb (P31751 120-481 S474D): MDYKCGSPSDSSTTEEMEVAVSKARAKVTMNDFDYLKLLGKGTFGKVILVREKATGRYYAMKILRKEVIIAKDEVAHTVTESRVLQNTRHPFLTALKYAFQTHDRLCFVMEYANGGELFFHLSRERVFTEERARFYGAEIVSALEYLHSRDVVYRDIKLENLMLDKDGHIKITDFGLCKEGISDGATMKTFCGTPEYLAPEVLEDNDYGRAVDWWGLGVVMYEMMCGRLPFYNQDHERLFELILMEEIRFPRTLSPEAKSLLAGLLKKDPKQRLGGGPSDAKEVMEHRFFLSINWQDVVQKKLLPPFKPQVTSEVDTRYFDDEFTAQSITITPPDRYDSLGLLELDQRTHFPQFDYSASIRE

## c1cc2[nH]nc3c2c(n1)N(C1CCOCC1)CCC3 [Example 29, 6-(tetrahydro-2H-pyran-4-yl)-6,7,8,9-tetrahydro-2H-1,2,5,6-tetraazabenzo[cd]azulene]
PKBb
  percentage inhibition of PKBb: 0 percentage
PAK4
  percentage inhibition of PAK4: 7 percentage
NEK2a
  percentage inhibition of NEK2a: 0 percentage
YES1
  percentage inhibition of YES1: 0 percentage
AMPK(hum)
  percentage inhibition of AMPK(hum): 6 percentage
CSK
  percentage inhibition of CSK: 0 percentage
ERK2
  percentage inhibition of ERK2: 0 percentage
CAMK1
  percentage inhibition of CAMK1: 0 percentage

## CN1CCC(N2Cc3ccccc3-c3n[nH]c4ccnc2c34)CC1 [Example 55]
PKBb
  percentage inhibition of PKBb: 10 percentage
PAK4
  percentage inhibition of PAK4: 20 percentage
NEK2a
  percentage inhibition of NEK2a: 14 percentage
YES1
  percentage inhibition of YES1: 16 percentage
AMPK(hum)
  percentage inhibition of AMPK(hum): 64 percentage
CSK
  percentage inhibition of CSK: 0 percentage
ERK2
  percentage inhibition of ERK2: 0 percentage
CAMK1
  percentage inhibition of CAMK1: 25 percentage

## c1cc2[nH]nc3c2c(n1)N(C1CCCC1)CCC3 [Example 23, 6-cyclopentyl-6,7,8,9-tetrahydro-2H-1,2,5,6-tetraazabenzo[cd]azulene]
PKBb
  percentage inhibition of PKBb: 0 percentage
PAK4
  percentage inhibition of PAK4: 0 percentage
NEK2a
  percentage inhibition of NEK2a: 8 percentage
YES1
  percentage inhibition of YES1: 0 percentage
CSK
  percentage inhibition of CSK: 0 percentage
ERK2
  percentage inhibition of ERK2: 0 percentage
CAMK1
  percentage inhibition of CAMK1: 0 percentage

## CC(C)n1ncc2c1CN(C1CCN(C)CC1)c1nccc3[nH]nc-2c13 [Example 68]
PKBb
  percentage inhibition of PKBb: 9 percentage
PAK4
  percentage inhibition of PAK4: 25 percentage
NEK2a
  percentage inhibition of NEK2a: 0 percentage
YES1
  percentage inhibition of YES1: 5 percentage
AMPK(hum)
  percentage inhibition of AMPK(hum): 32 percentage
CSK
  percentage inhibition of CSK: 0 percentage
ERK2
  percentage inhibition of ERK2: 11 percentage
CAMK1
  percentage inhibition of CAMK1: 45 percentage

## c1cc2[nH]nc3c2c(n1)N(C1CCC1)CCC3 [Example 22, 6-cyclobutyl-6,7,8,9-tetrahydro-2H-1,2,5,6-tetraazabenzo[cd]azulene]
PKBb
  percentage inhibition of PKBb: 0 percentage
PAK4
  percentage inhibition of PAK4: 6 percentage
NEK2a
  percentage inhibition of NEK2a: 13 percentage
YES1
  percentage inhibition of YES1: 0 percentage
AMPK(hum)
  percentage inhibition of AMPK(hum): 16 percentage
CSK
  percentage inhibition of CSK: 1 percentage
ERK2
  percentage inhibition of ERK2: 0 percentage
CAMK1
  percentage inhibition of CAMK1: 0 percentage
